# Assay results from patent publication US20260000710A1, “Novel Treatments for Cardiovascular Related Disease” (priority 2022, published 2026).
# Tests used:
# [1] = system: purified MHC molecules (28 common HLA DP, DQ and DR alleles); experiment: HLA class II competition binding assay (inhibition of radiolabeled ligand binding); set-up: species or system human; conditions: alleles bound at <1000 nM threshold
# Method: Peptides predicted to bind most (≥75%) of the alleles, were experimentally verified in HLA-II binding assays^31. For each peptide, the number of alleles that bound at a <1000 nM threshold level was tabulated. Top 20 promiscuous binders (bind >50% of reference alleles) were selected for further study (FIG. 9A, Table 2).
# Next, the capacity of these peptides to bind 28 common HLA alleles (27 from the reference set plus DPB1*03:01) was determined experimentally using classical competition assays based on the inhibition of binding of high affinity radiolabeled ligands to purified MHC molecules^3. Under the conditions utilized, where [radiolabeled peptide] is <[MHC], and [MHC]<[inhibitor peptide], the measured IC50 values, defined as the concentrations of inhibitor peptide that inhibits the binding of the radiolabeled ligand by 50%, are reasonable estimates of true Kd values.
# [2] = system: AIM+ and AIM− CD4+ T cells from peptide-expanded PBMCs; experiment: TCRβ CDR3 sequencing (immunoSEQ) of sorted AIM+ and AIM− CD4+ T cells; type: cell-based, human; conditions: for Log10 Odds Ratio: AIM+ vs AIM−;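 for all read-outs here: genomic DNA from sorted cells as template, amplification bias-controlled two-step multiplex PCR, APOB6 pool at 10 µg/ml per peptide, CD40 blocking antibody added before restimulation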
# Method: To examine the clonotypic identities of autoreactive CD4^+ T cells, the hypervariable TCRβ DR3 region was sequenced using a DNA-based sequencing technique^42 (Adaptive Biotechnologies), which have been used to profile clonal populations of other self-antigen specific T cells^43. PBMCs from six HLA-typed donors (demographics and HLA-II alleles in Tables 5, 6) were expanded (14-days) and restimulated (24 h) with the APOB6 pool. To isolate viable responder and non-responder CD4^+ T cells from the same pool of stimulated PBMCs (schematic in FIG. 15A, gating strategy in FIG. 151B), the inventors used the AIM assay protocol (FIGS. 2A to 2D).
# As a second control, unexpanded PBMCs (day 0 samples), sorted into naïve, central memory (TCM) and effector memory (TEM) CD4^+ T cells, were used (gating strategy in FIG. 15C). This allowed tracing the APOB6-specific AIM^+ T cell clones in naïve and memory T cell lineages. Genomic DNA, isolated from sorted AIM^− and AIM^+ Day 14 samples and naïve, TCM and TEM Day 0 samples from six donors, was used as the starting material for TCRVβ sequencing (schematic in FIG. 15A) using an optimized two-step, amplification bias-controlled multiplex-PCR-based approach^42,44 (immunoSEQ Human TCRB Assay, Adaptive Biotechnologies).
# For isolation of APOB epitope-specific CD4^+ T cells, PBMCs were expanded with the APOB6pool (10 μg/ml per peptide). On Day 14, cultured cells were washed and re-stimulated with APOB6 (10 μg/ml) for 24 h (AIM assay protocol). 1 μg/ml of CD40 blocking antibody was added 15 min before stimulation. At the end of the stimulation period, cells were washed with FACS buffer (PBS w/o Ca/Mg, 2% FCS). Day 14 (APOB6 expanded and restimulated) and Day 0 (ex vivo samples with no in vitro stimulation) PBMC samples from six donors were resuspended in a staining master mix containing anti-human Fc-Block (Biolegend), fixable viability dye and antibodies against T cell and non-T cell (Dump) surface markers, activation markers and memory markers (antibody details in Table 4). Viability dye was used at 1:1000 dilution, antibodies were used at a final dilution of 1:100 (activation markers) and 1:200 (other extracellular markers). […] Gates were set based on unstimulated and PHA-L stimulated negative and positive controls, respectively. Antigen-specific AIM^+ and non-specific control AIM^− CD4^+ T cells from Day 14 samples and naïve (CD45RA^+CCR7^+), central memory (CD45RA^−CCR7^+, TCM) and effector memory (CD45RA^−CCR7^−, TEM) CD4^+ T cells from Day 0 PBMCs were sorted into HEPES-containing buffer (PBS with 2% FBS and 0.025 M HEPES) using BD FACSAria flow cytometry sorters. Acquired data was analyzed with FlowJo software.
# Genomic DNA was extracted from sorted cells using QIAamp DNA Micro Kit (QIAGEN) and sent to Adaptive Biotechnologies for survey-level TCRβ sequencing (depth ˜60,000 reads) using their established immunoSEQ platform^7. Briefly, highly variable CDR3 regions on somatically rearranged human TCRβ chains were amplified with a two-step multiplex PCR approach using optimized set of primers that target the VDJ region spanning each unique CDR3B. A synthetic repertoire containing all possible V/J templates is used as a built-in control to quantify and correct PCR amplification biases. Processing of raw Illumina sequence reads, filtering, demultiplexing, clustering and mapping of CDR3 sequences and annotation of VDJ genes using IMGT database sequences were performed at Adaptive Biotechnologies and made available for download and analysis.
# PBMCs = experiment: IFNγ ELISpot after 14-day in vitro expansion and re-stimulation; type: cell-based, human
# Method: To do this, the inventors used the optimized IFNγ ELISpot assay (FIG. 1A) because Th1 cytokine response to APOB peptides is most robust (FIG. 9D) and easily detectable in high-throughput screens. PBMCs from HLA-typed donors (demographics and HLA-II alleles in Tables 5, 6) were incubated with the APOB20 pool for 14 days with intermittent IL-2 feeding (schematic in FIG. 11A). […] Restimulation with the APOB20 pool and with PHA-L served as positive controls, and unstimulated cells were negative controls. For each donor, APOB peptide-specific restimulation conditions were run in triplicate wells and the average number of spot-forming cells (SFCs) per 10^6 PBMCs was calculated. To determine responder frequencies, a positive response was defined based on established criteria set for detection of responses to other autoantigenic epitopes^4. (1) ≥100 spot-forming cells per 10^6 PBMCs; (2) stimulation index ≥2 (3) p≤0.01 by Student's t-test, mean response in stimulated vs unstimulated replicate wells.
# Expansion of antigen-specific T cells and Enzyme-linked immunospot (ELISpot) assay. For in vitro expansion, PBMCs were plated at a density of 2×10^6 cells/ml in 24-well plates and were cultured in the presence of APOB20 and CEFX-II peptide pools. […] Wells were imaged and spot-forming cells (SFCs) were quantified using the Zeiss KS or AID (Autoimmun Diagnostika) ELISpot readers. […]
# [3] = target: 28 common HLA alleles (27 from the reference set plus DPB1*03:01), purified MHC molecules; experiment: competition assay, inhibition of radiolabeled ligand binding to purified HLA class II; bound = IC50 <1000 nM
# [4] = Donor 3, PBMCs expanded 14 days and restimulated 24 h with APOB6
# [5] = Donor 1, PBMCs expanded 14 days and restimulated 24 h with APOB6
# [6] = Donor 6, PBMCs expanded 14 days and restimulated 24 h with APOB6
# [7] = Donor 4, PBMCs expanded 14 days and restimulated 24 h with APOB6
# [8] = Donor 5, PBMCs expanded 14 days and restimulated 24 h with APOB6
# [9] = Donor 2, PBMCs expanded 14 days and restimulated 24 h with APOB6
molecule,measurement,setting,value
LIINWLQEALSSASL [Peptide 11],No. of HLA-II alleles bound,[1],17
QIHQYIMALREEYFD [Peptide 19],No. of HLA-II alleles bound,[1],25
QLYSKFLLKAEPLAF [Peptide 8],No. of HLA-II alleles bound,[1],27
VEFVTNMGIIIPDFA [Peptide 4],No. of HLA-II alleles bound,[1],18
DKRLAAYLMLMRSPS [Peptide 1],No. of HLA-II alleles bound,[1],23
KFTYLINYIQDEINT [Peptide 18],No. of HLA-II alleles bound,[1],19
VGSKLIVAMSSWLQK [Peptide 5],No. of HLA-II alleles bound,[1],21
YKKLRTSSFALNLPT [Peptide 16],No. of HLA-II alleles bound,[1],21
ILFSYFQDLVITLPF [Peptide 17],No. of HLA-II alleles bound,[1],17
RGLKLATALSLSNKF [Peptide 15],No. of HLA-II alleles bound,[1],23
GKIDFLNNYALFLSP [Peptide 14],No. of HLA-II alleles bound,[1],23
SLFFSAQPFEITAST [Peptide 13],No. of HLA-II alleles bound,[1],23
FLHYIFMENAFELPT [Peptide 3],No. of HLA-II alleles bound,[1],24
LEVLNFDFQANAQLS [Peptide 12],No. of HLA-II alleles bound,[1],18
HVKHFVINLIGDFEV [Peptide 10],No. of HLA-II alleles bound,[1],21
IKHIYAISSAALSAS [Peptide 6],No. of HLA-II alleles bound,[1],20
KIVSLIKNLLVALKD [Peptide 20],No. of HLA-II alleles bound,[1],20
"CASSQEVGGDHGYTF: TCRβ CDR3 clone, TCRBV04-03+TCRBJ01-02, Donor 3",Log10 Odds Ratio,[2]; Donor 3,2.41
same,"No. of clone-specific productive templates, AIM+ CD4+ T (Total 16700)",[2]; [4],759
same,"No. of clone-specific productive templates, AIM− CD4+ T (Total 21770)",[2]; [4],4
"CASSLALGTGDTEAFF: TCRβ CDR3 clone, TCRBV05-01+TCRBJ01-01, Donor 1",Log10 Odds Ratio,[2]; Donor 1,2.98
same,"No. of clone-specific productive templates, AIM+ CD4+ T (Total 21697)",[2]; [5],410
same,"No. of clone-specific productive templates, AIM− CD4+ T (Total 49956)",[2]; [5],1
"CSARADGQGYGYTF: TCRβ CDR3 clone, TCRBV20-X+TCRBJ01-02, Donor 3",Log10 Odds Ratio,[2]; Donor 3,1.73
same,"No. of clone-specific productive templates, AIM+ CD4+ T (Total 16700)",[2]; [4],996
same,"No. of clone-specific productive templates, AIM− CD4+ T (Total 21770)",[2]; [4],26
"CASSIPQGSGSPLHF: TCRβ CDR3 clone, TCRBV05-06+TCRBJ01-06, Donor 6; top-ranked APOB6-specific rearrangement",Log10 Odds Ratio,[2]; Donor 6,2.41
same,"No. of clone-specific productive templates, AIM+ CD4+ T (Total 34927)",[2]; [6],9283
same,"No. of clone-specific productive templates, AIM− CD4+ T (Total 45364)",[2]; [6],63
"CASSSSGSNYNEQFF: TCRβ CDR3 clone, TCRBV03-01/03-02+TCRBJ02-01, Donor 3",Log10 Odds Ratio,[2]; Donor 3,1.19
same,"No. of clone-specific productive templates, AIM+ CD4+ T (Total 16700)",[2]; [4],597
same,"No. of clone-specific productive templates, AIM− CD4+ T (Total 21770)",[2]; [4],52
LSQLQTYMIQFDQYI [Peptide 9],No. of HLA-II alleles bound,[1],17
"CASSPLLYSGNTIYF: TCRβ CDR3 clone, TCRBV07-02+TCRBJ01-03, Donor 3",Log10 Odds Ratio,[2]; Donor 3,12.09
same,"No. of clone-specific productive templates, AIM+ CD4+ T (Total 16700)",[2]; [4],347
same,"No. of clone-specific productive templates, AIM− CD4+ T (Total 21770)",[2]; [4],0
"CASSYRQTNQPQHF: TCRβ CDR3 clone, TCRBV06-02/06-03+TCRBJ01-05, Donor 4",Log10 Odds Ratio,[2]; Donor 4,12.14
same,"No. of clone-specific productive templates, AIM+ CD4+ T (Total 25796)",[2]; [7],509
same,"No. of clone-specific productive templates, AIM− CD4+ T (Total 25928)",[2]; [7],0
"CASSAMVEQPQHF: TCRβ CDR3 clone, TCRBV06-X+TCRBJ01-05, Donor 4",Log10 Odds Ratio,[2]; Donor 4,0.55
same,"No. of clone-specific productive templates, AIM+ CD4+ T (Total 25796)",[2]; [7],1709
same,"No. of clone-specific productive templates, AIM− CD4+ T (Total 25928)",[2]; [7],503
"CASSPGREPGNTIYF: TCRβ CDR3 clone, TCRBV07-09+TCRBJ01-03, Donor 5",Log10 Odds Ratio,[2]; Donor 5,0.57
same,"No. of clone-specific productive templates, AIM+ CD4+ T (Total 31354)",[2]; [8],422
same,"No. of clone-specific productive templates, AIM− CD4+ T (Total 48987)",[2]; [8],179
"CATSQGVGSGANVLTF: TCRβ CDR3 clone, TCRBV15-01+TCRBJ02-06, Donor 6",Log10 Odds Ratio,[2]; Donor 6,2.24
same,"No. of clone-specific productive templates, AIM+ CD4+ T (Total 34927)",[2]; [6],649
same,"No. of clone-specific productive templates, AIM− CD4+ T (Total 45364)",[2]; [6],5
"CASSSLTPEAYGYTF: TCRβ CDR3 clone, TCRBV28-01+TCRBJ01-02, Donor 2",Log10 Odds Ratio,[2]; Donor 2,2.21
same,"No. of clone-specific productive templates, AIM+ CD4+ T (Total 18591)",[2]; [9],796
same,"No. of clone-specific productive templates, AIM− CD4+ T (Total 7206)",[2]; [9],2
TLTAFGFASADLIEI [Peptide 2],response with pan-HLA-DR blocking antibody,"PBMCs; donor 1, HLA-DR alleles with strong binding affinities for the peptide",inhibited responses
same,immunogenicity under HLA-DR blockade,"PBMCs; donor 2, DQ and DP binder alleles and DR non-binder alleles",remained unaffected
same,No. of HLA-II alleles bound,[1],21
"CASSEMGLNTDTQYF: TCRβ CDR3 clone, TCRBV06-01+TCRBJ02-03, Donor 4",Log10 Odds Ratio,[2]; Donor 4,0.45
same,"No. of clone-specific productive templates, AIM+ CD4+ T (Total 25796)",[2]; [7],1601
same,"No. of clone-specific productive templates, AIM− CD4+ T (Total 25928)",[2]; [7],601
"CASSYGGGPPDTQYF: TCRβ CDR3 clone, TCRBV06-06+TCRBJ02-03, Donor 5",Log10 Odds Ratio,[2]; Donor 5,2.34
same,"No. of clone-specific productive templates, AIM+ CD4+ T (Total 31354)",[2]; [8],810
same,"No. of clone-specific productive templates, AIM− CD4+ T (Total 48987)",[2]; [8],6
"CASSQTALYSGNTIYF: TCRβ CDR3 clone, TCRBV19-01+TCRBJ01-03, Donor 5",Log10 Odds Ratio,[2]; Donor 5,12.08
same,"No. of clone-specific productive templates, AIM+ CD4+ T (Total 31354)",[2]; [8],777
same,"No. of clone-specific productive templates, AIM− CD4+ T (Total 48987)",[2]; [8],0
"CSATGGTNEKLFF: TCRβ CDR3 clone, TCRBV20-X+TCRBJ01-04, Donor 6",Log10 Odds Ratio,[2]; Donor 6,1.59
same,"No. of clone-specific productive templates, AIM+ CD4+ T (Total 34927)",[2]; [6],500
same,"No. of clone-specific productive templates, AIM− CD4+ T (Total 45364)",[2]; [6],17
"CASRGQRDTGELFF: TCRβ CDR3 clone, TCRBV19-01+TCRBJ02-02, Donor 1",Log10 Odds Ratio,[2]; Donor 1,2.63
same,"No. of clone-specific productive templates, AIM+ CD4+ T (Total 21697)",[2]; [5],367
same,"No. of clone-specific productive templates, AIM− CD4+ T (Total 49956)",[2]; [5],2
"CSVLQHEQYF: TCRβ CDR3 clone, TCRBV29-01+TCRBJ02-07, Donor 4",Log10 Odds Ratio,[2]; Donor 4,0.49
same,"No. of clone-specific productive templates, AIM+ CD4+ T (Total 25796)",[2]; [7],466
same,"No. of clone-specific productive templates, AIM− CD4+ T (Total 25928)",[2]; [7],153
HFSNVFRSVMAPFTM [Peptide 7],No. of HLA-II alleles bound,[1],22
TLTAFGFASADLIEI [APOB peptide 2 (…)],No. of HLA-II alleles bound,[3],21 alleles
GKIDFLNNYALFLSP [APOB peptide 14 (…)],No. of HLA-II alleles bound,[3],23 alleles
QIHQYIMALREEYFD [APOB peptide 19 (…)],No. of HLA-II alleles bound,[3],25 alleles
HVKHFVINLIGDFEV [APOB peptide 10 (…)],No. of HLA-II alleles bound,[3],21 alleles
ILFSYFQDLVITLPF [APOB peptide 17 (…)],No. of HLA-II alleles bound,[3],17 alleles
LIINWLQEALSSASL [APOB peptide 11 (…)],No. of HLA-II alleles bound,[3],17 alleles
IKHIYAISSAALSAS [APOB peptide 6 (…)],No. of HLA-II alleles bound,[3],20 alleles
SLFFSAQPFEITAST [APOB peptide 13 (…)],No. of HLA-II alleles bound,[3],23 alleles
FLHYIFMENAFELPT [APOB peptide 3 (…)],No. of HLA-II alleles bound,[3],24 alleles
VEFVTNMGIIIPDFA [APOB peptide 4 (…)],No. of HLA-II alleles bound,[3],18 alleles
HFSNVFRSVMAPFTM [APOB peptide 7 (…)],No. of HLA-II alleles bound,[3],22 alleles
YKKLRTSSFALNLPT [APOB peptide 16 (…)],No. of HLA-II alleles bound,[3],21 alleles
KFTYLINYIQDEINT [APOB peptide 18 (…)],No. of HLA-II alleles bound,[3],19 alleles
DKRLAAYLMLMRSPS [APOB peptide 1 (…)],No. of HLA-II alleles bound,[3],23 alleles
LSQLQTYMIQFDQYI [APOB peptide 9 (…)],No. of HLA-II alleles bound,[3],17 alleles
VGSKLIVAMSSWLQK [APOB peptide 5 (…)],No. of HLA-II alleles bound,[3],21 alleles
QLYSKFLLKAEPLAF [APOB peptide 8 (…)],No. of HLA-II alleles bound,[3],27 alleles
KIVSLIKNLLVALKD [APOB peptide 20 (…)],No. of HLA-II alleles bound,[3],20 alleles
LEVLNFDFQANAQLS [APOB peptide 12 (…)],No. of HLA-II alleles bound,[3],18 alleles
